Test results from patent publication US8734788B2, “Composition and method for treatment of reperfusion injury and tissue damage” (OPSONA Therapeutics Ltd, priority 2007, dated 2014).
“Also recorded” adds a separate entry of the source.

How the values were obtained:
[1] = tested on: myocardial ischemia/reperfusion (I/R) injury in C57BL6 mice; experiment: Infarct size after myocardial ischemia/reperfusion in mice (Evans blue/TTC staining); type: in vivo; conditions: for effect on infarct size (in words): administered 5 minutes prior to reperfusion, versus saline/PBS
Method: Male C57BL6 mice (8-12 weeks old, 25-30 grams of weight) underwent 30 minutes of ischemia followed by 24 hours of reperfusion.
Experimental compounds were administered 5 minutes prior to reperfusion via the tail vein. […] OPN-301 (OPN301) is a murine IgG1 anti-TLR2 antibody (mouse Toll-like Receptor 2 (TLR2) antibody, clone T2.5, HyCult Biotechnology b.v., Cell Sciences, Canton, USA: catalogue number 1054).
Mice were anesthetized with a mixture of […]™ (N-(1-phenethyl-4-piperidyl)-N-phenyl-propanamide) 0.05 mg/kg, DORMICUM™ (Midazolum, 8-chloro-6-(2-fluorophenyl)-1-methyl-4H-imidazo[1,5-a][1,4]benzodiazepine) 5 mg/kg and DOMITOR™ (medetomidine hydrochlorine) 0.5 mg/kg (intraperitoneal injection). Atropine ((8-methyl-8-azabicyclo[3.2.1]oct-3-yl) 3-hydroxy-2-phenylpropanoate) 0.05 mg/kg was subcutaneously administered before coronary ligation. Core body temperature was maintained between 36° C. and 37.5° C. during surgery by continuous monitoring with a rectal thermometer and automatic heating blanket. Mice were […] and ventilated (Harvard Apparatus Inc.) with 100% oxygen. The left anterior descending (LAD) coronary artery was ligated using an 8-0 vicryl suture with a section of polyethylene-10 tubing placed over the LAD.
Ischemia was confirmed by bleaching of the myocardium. Reperfusion was initiated by releasing the ligature and removing the polyethylene-10 tubing. Reperfusion of the endangered myocardium is characterized by typical hyperaemia in the first few minutes. A piece of the loosened suture was left in place in order to determine ischemic area. The chest wall was closed and the animals received subcutaneously […]™ (atipamezole hydrochloride, a sedation reversal agent for DOMITOR™ (medetomidine hydrochlorine)) 2.5 mg/kg, ANEXATE™ (Flumazenil (also known as flumazepil)) 0.5 mg/kg and […]™ (buprenorphine) 0.1 mg/kg.
Infarct Size (IS) is expressed as a percentage of the Area-At-Risk (AAR) and total Left Ventricle (LV). The ratio of AAR/LV is a measure for the extent of myocardial tissue that underwent ischemia and reperfusion (i.e. endangered area). The ratio IS/AAR is an accurate measurement to determine infarct size within endangered myocardium and is the primary endpoint from which the efficacy of treatment is addressed. The secondary endpoint IS/LV ratio is the percentage infarcted area within the total left ventricular wall.
To determine the AAR, the LAD was ligated once again (at the level marked by the suture left in place) and 4% Evans blue dye was injected via the thoracic aorta in a retrograde fashion. Hearts were rapidly explanted, rinsed in 0.9% saline and wrapped in a clear food wrap and frozen at −20° C. for 1 hour. Hearts were then mechanically sliced into five 1 mm cross sections. Heart sections were incubated in 1% triphenyltetrazolium chloride (Sigma-Aldrich) at 37° C. for 15 minutes before placing them in formaldehyde for another 15 minutes. Viable tissue stained red and infarcted tissue appeared white. Heart sections were digitally photographed (CANON EOS 400D) under a microscope (CARL ZEISS™). IS, MR and total LV area were measured using ImageJ software (version 1.34).
All data are expressed as Mean±SD. After skewness±SD and kurtosis±SD confirmed normality, a one-way ANOVA with Bonferroni adjustment (Table 2) and a Dunnett's T test (2 sided) (Table 4). was used to test differences between groups. Kolmogorov-Smirnov test performed if abnormal distribution was suspected (i.e. when kurtosis and skewness values are twice their standard deviations). All statistical analyses were performed using SPSS version 13.0 for Windows (SPSS, Chicago, USA) and p<0.05 was considered significant.

[2] = tested on: IL-1 production in LPS-stimulated human peripheral blood monocytes; conditions: cited from earlier work
[3] = Table 1, 30 min ischemia/24 h reperfusion, i.v. 5 min prior to reperfusion, mAb and IgG 10 mg/kg, SB239063 0.5 mg/kg, n=10
[4] = Table 2, Bonferroni, (J) group IgG isotype
[5] = Table 2, Bonferroni, (J) group PBS
[6] = Table 2, Bonferroni, (J) group exp. mAB
[7] = Table 3 (amended, saline control set), 30 min ischemia/24 h reperfusion, n=10
[8] = Table 5, Dunnett, (J) group Saline

trans-1-(4-Hydroxycyclohexyl)-4-(fluorophenyl)-5-(2-methoxypyrimidin-4-yl) imidazole [SB239063]
IS_AAR (infarct size as percentage of Area At Risk), Mean [1, 3]: 31.4000%
IS_LV (infarct size as percentage of total Left Ventricle), Mean [1, 3]: 12.0100%
IS_AAR Mean Difference (I-J) [1, 4]: .25400
IS_LV Mean Difference (I-J) [1, 4]: −.85200
IS_AAR Mean Difference (I-J) [1, 5]: −4.185
IS_LV Mean Difference (I-J) [1, 5]: −5.3
IS_AAR Mean Difference (I-J) [1, 6]: 13.51(*)
IS_LV Mean Difference (I-J) [1, 6]: 5.908(*)
IS/AAR Mean [1, 7]: 31.7250%
IS/LV Mean [1, 7]: 12.3220%
IS_AAR Mean Difference (I-J) ([1]; Table 4, Dunnett, (J) group Saline, n=10 groups): −2.776
IS_AAR Mean Difference (I-J) [1, 8]: −2.776
IS_LV Mean Difference (I-J) [1, 8]: −1.74
effect on infarct size (in words) [1]: did not reduce infarct size
effect on infarct size (in words) ([1]; listed as p38 inhibitor): no reduction of infarct size; also recorded: no difference in infarct size
difference in mean IS/LV ([1]; versus PBS treated mice, not statistically significant (FIG. 7)): −26%
IC50 [2]: 120 nM
